Source: patent US6642216B2, “Isoprenoid pathway inhibitors for stimulating bone growth” (ZymoGenetics Corporation, priority 1996, dated 2003)

Key:
neonatal mouse calvaria = assay: Neonatal mouse calvaria assay (in vitro bone formation); type: cell-based; parameters: Osteoblast Number, % increase over vehicle control / New Bone Area, % increase over vehicle control: concentration or dose not given beside the values
Description: Briefly, four days after birth, the front and parietal bones of ICR Swiss white mouse pups are removed by microdissection and split along the sagittal suture.
Three μm sections of the calvaria are prepared. Representative sections are selected for histomorphometric assessment of bone formation or bone resorption. Bone changes are measured on sections cut 200 μm apart. Osteoblasts and osteoclasts are identified by their distinctive morphology.
Selected compounds and appropriate controls were assayed in vitro (ex vivo) for bone formation activity (described above in “Neonatal Mouse Calvaria Assay (in vitro)”). Histomorphometrical assessments of ex vivo calvaria were carried out using an OsteoMetrics bone morphometry measurement program, according to the manufacturer's instructions. Measurements were determined using either a 10- or 20-fold objective with a standard point counting eyepiece graticule.
New bone formation was determined (using a 10× objective) by measuring the new bone area formed in one field in 3 representative sections of each bone (4 bones per group). Each measurement was carried out ½ field distance from the end of the suture. Both total bone and old bone area were measured. Data were expressed as new bone area in mm^2.
Osteoblast numbers were determined by point counting. The number of osteoblast cells lining the bone surface on both sides of the bone were counted in one field using a 20× objective. Data were expressed as osteoblast numbers/mm of bone surface.
The results were calculated as new bone area in mm^2×10^−3, as above.

BMP-2 promoter = assay: ABA assay: BMP-2 promoter-luciferase reporter in 2T3-BMP-2-LUC osteoblast cells; type: cell-based, mouse; conditions: for % 59-0008 Response / Fold increase over negative control: Experiment 1
Description: These transformed cells are then evaluated for the production of the reporter gene product; compounds that activate the BMP promoter will drive production of the reporter protein, which can be readily assayed.
The cells were cultured using α-MEM, 10% FCS with 1% penicillin/streptomycin and 1% glutamine (“plating medium”), and were split 1:5 once per week. For the assay, the cells were resuspended in a plating medium containing 4% FCS, plated in microtiter plates at a concentration of 5×10^3 cells (in 50 μl)/well, and incubated for 24 hours at 37° C. in 5% CO2. To initiate the assay, 50 μl of the test compound or the control in DMSO was added at 2× concentration to each well, so that the final volume was 100 μl. The final serum concentration was 2% FCS, and the final DMSO concentration was 1%.
The treated cells were incubated for 24 hours at 37° C. and 5% CO2. The medium was then removed, and the cells were rinsed three times with PBS. After removal of excess PBS, 25 μl of 1× cell culture lysing reagent (Promega #E153A) was added to each well and incubated for at least ten minutes. Optionally, the plates/samples could be frozen at this point. To each well was added 50 μl of luciferase substrate (Promega #E152A; 10 ml Promega luciferase assay buffer per 7 mg Promega luciferase assay substrate). Luminescence was measured on an automated 96-well luminometer, and was expressed as either picograms of luciferase activity per well or as picograms of luciferase activity per microgram of protein.
Alternatively, the reactivity of a compound to be tested can be compared directly to a negative control containing no compound.

[1] = test system: ICR Swiss white mice calvaria; assay: In vivo murine calvarial bone growth assay; parameters: species or system mouse; conditions: 12.5 μg/kg/day
Description: Male ICR Swiss white mice, aged 4-6 weeks and weighing 13-26 gm, are employed, using 4-5 mice per group. The calvarial bone growth assay is performed as described in PCT application WO 95/24211, incorporated by reference. Briefly, the test compound or appropriate control vehicle is injected into the subcutaneous tissue over the right calvaria of normal mice. Typically, the control vehicle is the vehicle in which the compound was solubilized, and is PBS containing 5% DMSO or is PBS containing Tween (2 μl/10 ml). The animals are sacrificed on day 14 and bone growth measured by histomorphometry. Bone samples for quantitation are cleaned from adjacent tissues and fixed in 10% buffered formalin for 24-48 hours, decalcified in 14% EDTA for 1-3 weeks, processed through graded alcohols; and embedded in paraffin wax. Three to five μm sections of the calvaria are prepared, and representative sections are selected for histomorphometric assessment of the effects on bone formation and bone resorption. Sections are measured by using a camera lucida attachment to trace directly the microscopic image onto a digitizing plate. Bone changes are measured on sections cut 200 μm apart, over 4 adjacent 1×1 mm fields on both the injected and noninjected sides of the calvaria. New bone is identified by its characteristic woven structure, and osteoclasts and osteoblasts are identified by their distinctive morphology. Histomorphometry software (OsteoMeasure, Osteometrix, Inc., Atlanta) is used to process digitizer input to determine cell counts and measure areas or perimeters.
The results are reported as a measurement of total bone area (and % increase in area over vehicle control), as shown below.

Molecule: NCCC(O)(P(=O)(O)O)P(=O)(O)O [Pamidronate, pamidronate]
- New Bone Area (neonatal mouse calvaria; other bisphosphonates, 10 μM): 6.0 ± 0.5 mm^2 × 10^−3
- New Bone Area (neonatal mouse calvaria; other bisphosphonates, 100 μM): 5.8 ± 0.6 mm^2 × 10^−3
- New Bone Area (neonatal mouse calvaria; other bisphosphonates, 1000 μM): 5.2 ± 0.6 mm^2 × 10^−3
- effect on new bone area (neonatal mouse calvaria; under these conditions (0.1-1000 μM)): negligible effects

Molecule: CC[C@H](C)C(=O)O[C@H]1C[C@H](O)C=C2C=C[C@H](C)[C@H](CC[C@@H](O)C[C@@H](O)CC(=O)O)[C@H]21 [Pravastatin, pravastatin]
- % 59-0008 Response (BMP-2 promoter; 0.195312 μg/ml): −4.390%
- Fold increase over negative control (BMP-2 promoter; 0.195312 μg/ml): 0.807 fold
- % 59-0008 Response (BMP-2 promoter; 0.390625 μg/ml): −1.290%
- Fold increase over negative control (BMP-2 promoter; 0.390625 μg/ml): 0.943 fold
- % 59-0008 Response (BMP-2 promoter; 0.78125 μg/ml): −1.980%
- Fold increase over negative control (BMP-2 promoter; 0.78125 μg/ml): 0.913 fold
- % 59-0008 Response (BMP-2 promoter; 1.5625 μg/ml): −1.120%
- Fold increase over negative control (BMP-2 promoter; 1.5625 μg/ml): 0.951 fold
- % 59-0008 Response (BMP-2 promoter; 3.125 μg/ml): 0.380%
- Fold increase over negative control (BMP-2 promoter; 3.125 μg/ml): 1.017 fold
- % 59-0008 Response (BMP-2 promoter; 6.25 μg/ml): 0.920%
- Fold increase over negative control (BMP-2 promoter; 6.25 μg/ml): 1.040 fold
- % 59-0008 Response (BMP-2 promoter; 12.5 μg/ml): 1.110%
- Fold increase over negative control (BMP-2 promoter; 12.5 μg/ml): 1.049 fold
- % 59-0008 Response (BMP-2 promoter; 25 μg/ml): 3.520%
- Fold increase over negative control (BMP-2 promoter; 25 μg/ml): 1.155 fold
- % 59-0008 Response (BMP-2 promoter; 50 μg/ml): 5.000%
- Fold increase over negative control (BMP-2 promoter; 50 μg/ml): 1.220 fold
- % 59-0008 Response (BMP-2 promoter; 100 μg/ml): 7.620%
- Fold increase over negative control (BMP-2 promoter; 100 μg/ml): 1.335 fold
- % 59-0008 Response (BMP-2 promoter; 200 μg/ml): 11.670%
- Fold increase over negative control (BMP-2 promoter; 200 μg/ml): 1.513 fold

Molecule: O=P(O)(O)C(O)(Cc1cccnc1)P(=O)(O)O [Risedronate, risedronate]
- effect on new bone area (neonatal mouse calvaria; 10 μM and 100 μM): significant increases in new bone area
- New Bone Area (neonatal mouse calvaria; other bisphosphonates, 10 μM): 8.5 ± 0.5 mm^2 × 10^−3
- New Bone Area (neonatal mouse calvaria; other bisphosphonates, 100 μM): 7.3 ± 1.9 mm^2 × 10^−3
- New Bone Area (neonatal mouse calvaria; other bisphosphonates, 1000 μM): Toxic

Molecule: CC(O)(CCO)CC(=O)O (stereo not drawn) [mevalonate]
- effect of mevalonic acid on primary screen activity of 59-0008 (BMP-2 promoter): no effect
- effect of added mevalonate on the activity of mevastatin in the ABA assay (BMP-2 promoter; mevalonate 25-800 μM, mevastatin 100, 25, or 6.25 μM): inhibits the activity of mevastatin

Molecule: bFGF: control factor, "gold standard" agent for bone growth
- % increase in total bone area over vehicle control [1]: 45%
- Total Bone Area [1]: 242 μm^2
- New Bone Area (neonatal mouse calvaria; Experiment 1, 3 days): 5.7 mm^2 × 10^−3
- New Bone Area, % increase over vehicle control (neonatal mouse calvaria; Experiment 1, 3 days): 19%
- Osteoblast Number (neonatal mouse calvaria; Experiment 1, 3 days): 179.25 Obs/field
- Osteoblast Number, % increase over vehicle control (neonatal mouse calvaria; Experiment 1, 3 days): 84%
- New Bone Area (neonatal mouse calvaria; Experiment 1, 7 days): 18.1 mm^2 × 10^−3
- New Bone Area, % increase over vehicle control (neonatal mouse calvaria; Experiment 1, 7 days): 132%
- Osteoblast Number (neonatal mouse calvaria; Experiment 1, 7 days): 168.7 Obs/field
- Osteoblast Number, % increase over vehicle control (neonatal mouse calvaria; Experiment 1, 7 days): 82%
